Results published in PMC9229894, “In Silico, In Vitro, and Pharmacokinetic Studies of UBMC-4, a Potential Novel Compound for Treating against Trypanosoma cruzi” (Pathogens, 2022).
Like-named read-outs stand apart in the source and are kept apart here.

Columns and labels:
[1] = test system: T. cruzi Tulahuen strain amastigotes; assay: Trypanocidal activity in intracellular amastigotes (β-galactosidase, U937 macrophages); type: cell-based, Trypanosoma cruzi; conditions: Trypanosoma cruzi
Protocol: To obtain intracellular amastigotes, 2.5 × 10^6 U937 differentiated macrophage cells were infected with T. cruzi epimastigotes (Tulahuen strain producing β-galactosidase, 24 h of growing) in a 5:1 parasite/cell ratio. To calculate EC50, 100 μL of UBMC-4 were added at four serial dilutions ([…]) to each well, and benznidazole (bz) was added at an initial concentration of 20 µg/mL and 6 serial 2-fold dilutions were used to determine its EC50 as a control of the effectiveness of the experiment, in addition to the control of the viability of the parasites (cells without drug treatment), from the blank of the culture medium (medium without cells), in duplicate. The cells were incubated for 72 h at 37 °C with 5% of CO2. All medium was removed and 100 µL of substrate for β-galactosidase diluted in PBS (chlorophenol β-d-galactopyranoside-CPRG network; Sigma-Aldrich, St Louis, MO, USA, at 100 mM and 0.1% Nonidet P-40) was added to each well and incubated at 37 °C for 3 h. The amount of chlorophenol red released was read at 570 nm in a spectrophotometer (Varioskan TM). Infected cells were used as negative control while infected cells treated with benznidazole were used as a positive control (trypanocidal activity) for the assay. RPMI-1640 medium was used as a negative control. Non-specific absorbance was corrected by subtracting the OD of the blank sample. Determinations were done in triplicate in at least two independent experiments.
The trypanocidal activity was determined based on the percentage of decrease of amastigotes determined using equation, as follows: % reduction of infection = 100 − (O.D. of treated infected cells)/(O.D. of non-treated infected cells) × 100. The half maximal effective concentration (EC50) was calculated by the linear regression model Probit using Graphpad Prism software.

[2] = test system: T. cruzi epimastigotes; assay: Flow cytometry of apoptosis-like markers in epimastigotes (Hoechst, DiOC6, PI); type: cell-based, Trypanosoma cruzi; conditions: 10 µM, 24 h
Protocol: (§1) Apoptosis-like markers were analyzed by triple staining using 3,3′-dihexyloxacarbocyanine (DiOC6), propidium iodide (PI), and Hoechst from Thermo Fisher Scientific to determine the change of mitochondrial membrane potential (ΔΨm), cell membrane damage, and impairment of cell cycle, respectively. All readings were performed on a BD FACSCanto II 4/2/2 Sys IVD flow cytometer, and data obtained were analyzed using the FlowJo7.6.2 software. Differences between treatments were determined by a two-way ANOVA for multiple comparisons with 95% significance using GraphPad Prism 8. In all cases, 20 µL of parasites (5 × 10^6/mL) were stained per treatment with 300 µL of Hanks’ balanced saline solution (HBSS) and 10 µL of the staining mix containing […], 0.5 µL of 70 nM DiOC6, and 0.5 µL of 10 mg/mL Hoechst. Subsequently, parasites were incubated at room temperature for 15 min until reading.
T. cruzi epimastigotes in exponential growth phase were used to submit the parasites to a treatment under nutritional stress and further challenging the culture with the inhibitor UBMC-4 and the control drug bz. Nutritional stress was induced by starving the parasites in PBS. Parasites were grown either in complete RPMI medium or PBS (with and without 10 µM UBMC-4) for 24 h at 28 °C. Three independent biological replicates were analyzed per treatment. The experiments were performed in 24-well plates at an initial concentration of 1 × 10^7 total parasites in 2 mL/well. Parasites were centrifuged at 1800 RCF for 5 min, washed once with PBS buffer, and then resuspended in a final volume of 2 mL for further labeling and flow cytometry.

[3] = Cytotoxicity, MTT method, HepG2; type: cell-based; conditions: human, HepG2 cells, read-out: LC50 median lethal concentration HepG2
Protocol: (§2) Cytotoxicity of UBMC-4 was tested in HepG2, CaCo2, and huMDM cell lines according to the effect on cell growth determined by the MTT microenzimatic method, as described by others. Briefly, 2.0 × 10^4 U-937 and huMDM or 2.5 × 10^4 HepG2 and CaCo2 cells were dispensed in 200 µL into each well of a 96-well tissue culture plate containing the corresponding culture medium. Then, 100 µL/well of each compound at a concentration of […] were added and plates were incubated at 37 °C, 5% CO2. After 72 h of incubation, 20 μL of MTT (Sigma-Aldrich, St Louis, MO, USA) were added to each well and plates were incubated for 3 h at 37 °C, 5% CO2. […] The concentration of formazan was determined at 570 nm in a spectrophotometer (Varioskan Flash Multimode Reader, Thermo Scientific, Waltham, MA, USA). […] Cytotoxicity was determined according to the percentages of viability and cell growth inhibition obtained for each compound, bz, doxorubicin, or medium alone. Non-specific absorbance was corrected by subtracting the OD of the blank (culture medium). Percentages of mortality were calculated using equation, as follows: % mortality = 100 − [(O.D. of treated cells)/(O.D. of non-treated cells)] × 100. The half maximal effective concentration (EC50) was calculated by the linear regression model Probit using Graphpad Prism software.

[4] = Cytotoxicity, MTT method, huMDM; type: cell-based; conditions: human, monocyte-derived macrophages (huMDM), read-out: LC50 median lethal concentration huMDM
Protocol: as §2

[5] = test system: T. cruzi trypomastigotes; assay: Flow cytometry of apoptosis-like markers in trypomastigotes; type: cell-based, Trypanosoma cruzi; conditions: 10 µM; for DNA damage (hypodiploidy), % of trypomastigote population: time not given
Protocol: as §1
The same markers mentioned above were used for T. cruzi trypomastigotes. A total of 1 × 10^6 trypomastigotes were centrifuged at 1800 RCF for 5 min to remove the culture medium. Parasites were cultured at […] in PBS or 10% FBS-supplemented DMEM with or without 10 µM UBMC-4, 10 µM chloroquine, and 10 µM UBMC-4/chloroquine for 2 h and 5 h. All experiments were compared to a culture setup using bz as control compound. Three biological replicates and three experimental replicates were applied to data collected at each time point for experimental conduction of every portion of the study. In all cases, ANOVA was applied for multiple comparisons after determining that data were normal.

[6] = test system: T. cruzi trypomastigotes; assay: Morphological changes of trypomastigotes incubated with UBMC-4 (data not shown); type: cell-based, Trypanosoma cruzi; conditions: 10 µM

Structure (SMILES): Oc1ccc(-c2nc(-c3ccc4sc5ccccc5c4c3)c(-c3ccccc3)[nH]2)cc1 [UBMC-4, 4-(4-dibenzo-[b,d]-thien-2-yl-5-phenyl-1H-imidazol-2-yl)phenol]
- EC50 ([1]; TULAHUEN, U-937, 72 h, read-out: EC50 half maximal effective concentration for T. cruzi amastigotes): 1.85 ± 1 µM
- EC50 ([1]; U-937, intracellular amastigotes, Tulahuen strain, same value in mass units, read-out: EC50 for T. cruzi amastigotes): 0.774 µg/mL
- changes in apoptosis-like markers ([2]; normal culture conditions): no changes in apoptosis-like markers
- DNA fragmentation (hypodiploid, Sub G0/G1), % of population ([2]; nutritional stress): up to 39.4%
- cell membrane damage (PI), % of population ([2]; nutritional stress): 38.4%
- mitochondrial depolarization (DiOC6), % of population ([2]; nutritional stress): 99.9%
- CC50 at 72 h [3]: > 40 µM
- CC50 at 72 h [4]: > 40 µM
- mitochondrial membrane potential change ([5]; normal nutritional conditions, 2 h): remained intact (no hyper- or depolarization)
- cell membrane permeability, % of trypomastigote population ([5]; normal nutritional conditions, 5 h): 2.2%
- DNA damage (hypodiploidy), % of trypomastigote population ([5]; normal nutritional conditions): 23%
- Ψm depolarization, % of trypomastigotes ([5]; nutritional stress, 2 h): 32%
- cell membrane permeability, % of trypomastigote population ([5]; nutritional stress, 5 h): 36%
- Ψm depolarization, % of trypomastigotes ([5]; nutritional stress, 5 h): 40%
- DNA damage (hypodiploidy), % of trypomastigote population ([5]; nutritional stress): 54%
- morphological changes of trypomastigotes [6]: much faster progressive morphological changes within the hour
